Data taken from patent US5153201A, “Condensed thiazole compounds and use as pharmaceuticals” (Takeda Chemical Industries, Ltd., priority 1990, dated 1992).

System: excitatory behavior induced by spinal intrathecal injection of FeCl2 in mice
Experiment: Effects of drugs on the excitatory behavior induced by spinal intrathecal injection of FeCl2 in mice
Assay type: in vivo
Conditions: for Percent inhibition (%): inhibition of mean behavioral score versus saline, 100 mg/kg orally 30 min. prior to FeCl2 injection, mice; for Average score, administration of compound (100 mg/kg): male Slc:ICP mice (5 weeks), 100 mg/kg orally 30 min. prior to FeCl2 (5 μl of 50 mM, intrathecal), observed 15 min. to 1 hr., score 0 normal to 5 death
Description: Effects of drugs on the excitatory behavior induced by spinal intrathecal injection of FeCl2 in mice Male Slc:ICP mice (5 weeks) were used. Each group consisted of 10 mice. 5 μl of 50 mM FeCl2 in saline was injected into spinal subarchnoid space between the 1st sacral and the 6th lumbar segment, the behavioral responses were observed from 15 min. to 1 hr. after the intrathecal injection of FeCl2 and scored as follows. |Score Behavioral responses |0: normal (no abnormal behavior) |1: vigorously biting lower abdomen or lower | extremities |2: a) extremely biting lower body with rolling | b) hyperreactivity and […] to external stimuli | c) tremor | at least one of above three behavioral changes were | observed |3: clonic convulsion |4: tonic convulsion or paralysis of lower extremities. |5: death The test compounds (100 mg/kg) were orally administered 30 min. prior to FeCl2 injection.

| Compound | Percent inhibition (%) | Average score, administration of compound (100 mg/kg) |
| --- | --- | --- |
| COc1cccc(C=Cc2nc3c(s2)NCCC3)c1OC [Example 1, 2-(2,3-Dimethoxystyryl)-4,5,6,7-tetrahydrothiazolo[5,4-b]pyridine] | 82.6 | 0.8 |
| CCn1cc(C=Cc2nc3c(s2)NCCC3)nc1-c1ccccc1 [Example 6, 2-{2-(1-Ethyl-2-phenylimidazole-4-yl)ethenyl}-4,5,6,7-tetrahydrothiazolo[5,4-b]pyridine] | 97.9 | 0.1 |
| Cc1ccc(-c2nc3c(s2)NCCC3)cc1N.Cl.Cl [Example 3, 2-(3-Amino-4-methylphenyl)-4,5,6,7-tetrahydrothiazolo[5,4-b]pyridine dihydrochloride] | 80.9 | 0.9 |
| Cl.Cl.Cn1cnc(C=Cc2nc3c(s2)NCCC3)c1 [Example 5, 2-{2-(1-Methylimidazole-4-yl)ethenyl}-4,5,6,7-tetrahydrothiazolo[5,4-b]pyridine dihydrochloride] | 91.3 | 0.4 |
| Cc1ccc(-c2nc3c(s2)NCCC3)cc1N [Example 2, 2-(3-Amino-4-methylphenyl)-4,5,6,7-tetrahydrothiazolo[5,4-b]pyridine] | 85.1 | 0.7 |
